Measurements as given in patent US20080234262A1 (Wyeth, priority 2007, published 2008).

Columns and labels:
prostate line LNCap = experiment: In vitro cell culture growth assay (MTS), LNCap; assay type: cell-based, human; details: Homo sapiens, LNCaP, 72 h, LNCap cells, three days after drug treatment;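 also: viable cell density read by absorbance at 490 nm, growth expressed as percent of vehicle-treated cells on the same plate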
PI3K = PI3K (Homo sapiens, UniProt P42336); experiment: Fluorescence polarization assay for PI3K; assay type: biochemical; details: PI3Kα; read-out: PI3Kα IC50;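 also: PI3K kinase reaction on PIP2 with ATP, 30-60 min, product sensed by GST-GRP with red probe in fluorescence polarization (mP), controls without enzyme and at zero time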
breast line MDA468 = experiment: In vitro cell culture growth assay (MTS), MDA468; assay type: cell-based, human; details: Homo sapiens, 72 h, MDA468 cells, three days after drug treatment
Method in brief: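 Three-day drug treatment starting 1 day post-plating; viable cells quantified via MTS metabolism (A490); effect normalised to in-plate vehicle controls as % growth.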

Sequence of PI3K (P42336 whole entry): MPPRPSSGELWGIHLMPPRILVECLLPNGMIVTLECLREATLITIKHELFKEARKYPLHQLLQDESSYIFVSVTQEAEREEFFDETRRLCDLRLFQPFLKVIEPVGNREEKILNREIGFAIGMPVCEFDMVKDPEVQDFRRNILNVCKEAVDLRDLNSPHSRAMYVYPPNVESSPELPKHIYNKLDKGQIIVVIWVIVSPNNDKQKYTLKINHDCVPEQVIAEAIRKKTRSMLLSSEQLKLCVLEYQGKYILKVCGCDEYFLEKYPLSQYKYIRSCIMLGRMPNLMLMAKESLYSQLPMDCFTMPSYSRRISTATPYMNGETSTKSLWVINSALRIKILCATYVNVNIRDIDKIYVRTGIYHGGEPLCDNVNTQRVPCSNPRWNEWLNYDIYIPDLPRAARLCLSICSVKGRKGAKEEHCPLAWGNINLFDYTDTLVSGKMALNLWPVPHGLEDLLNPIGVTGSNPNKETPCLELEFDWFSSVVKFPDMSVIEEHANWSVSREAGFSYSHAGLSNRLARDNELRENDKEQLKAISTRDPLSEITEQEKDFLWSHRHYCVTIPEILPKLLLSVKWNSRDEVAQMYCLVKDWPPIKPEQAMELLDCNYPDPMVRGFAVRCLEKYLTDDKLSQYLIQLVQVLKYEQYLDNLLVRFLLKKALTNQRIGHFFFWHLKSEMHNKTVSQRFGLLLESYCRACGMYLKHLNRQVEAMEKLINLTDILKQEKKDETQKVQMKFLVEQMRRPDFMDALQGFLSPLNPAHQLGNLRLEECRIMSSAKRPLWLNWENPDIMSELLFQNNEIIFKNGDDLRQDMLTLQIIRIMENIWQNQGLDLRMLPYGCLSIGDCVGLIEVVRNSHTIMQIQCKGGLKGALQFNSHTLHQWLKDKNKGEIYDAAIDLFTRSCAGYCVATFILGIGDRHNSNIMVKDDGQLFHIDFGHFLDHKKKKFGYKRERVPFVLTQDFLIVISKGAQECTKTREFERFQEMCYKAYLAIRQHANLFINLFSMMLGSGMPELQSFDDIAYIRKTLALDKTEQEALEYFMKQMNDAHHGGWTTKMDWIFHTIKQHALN
Sequence of PI3K (P27986 whole entry partner): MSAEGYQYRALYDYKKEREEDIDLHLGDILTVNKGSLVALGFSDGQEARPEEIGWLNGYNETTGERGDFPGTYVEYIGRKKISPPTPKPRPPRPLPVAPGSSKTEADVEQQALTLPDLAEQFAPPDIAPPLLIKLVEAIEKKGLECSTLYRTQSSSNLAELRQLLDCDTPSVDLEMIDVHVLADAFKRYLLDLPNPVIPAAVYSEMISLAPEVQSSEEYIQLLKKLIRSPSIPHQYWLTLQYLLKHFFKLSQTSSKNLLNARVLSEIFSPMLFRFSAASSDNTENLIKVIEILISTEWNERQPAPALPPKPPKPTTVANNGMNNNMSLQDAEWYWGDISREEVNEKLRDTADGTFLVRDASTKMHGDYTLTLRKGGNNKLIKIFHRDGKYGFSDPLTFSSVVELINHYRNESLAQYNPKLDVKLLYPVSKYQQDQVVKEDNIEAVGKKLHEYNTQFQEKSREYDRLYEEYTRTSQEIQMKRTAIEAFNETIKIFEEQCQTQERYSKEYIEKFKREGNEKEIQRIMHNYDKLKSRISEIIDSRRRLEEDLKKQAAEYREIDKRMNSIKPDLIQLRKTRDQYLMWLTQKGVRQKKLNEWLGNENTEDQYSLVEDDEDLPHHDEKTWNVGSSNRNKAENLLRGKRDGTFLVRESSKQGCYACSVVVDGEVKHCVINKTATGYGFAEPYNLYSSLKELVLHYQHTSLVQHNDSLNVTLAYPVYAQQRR

Row | Structure (SMILES) | IC50 (prostate line LNCap) [µM] | IC50 (PI3K) [µM] | IC50 (breast line MDA468) [µM]
1 | O=C(NCCc1ccccc1)Nc1ccc(-c2nc(N3CCOCC3)c3cnn(C4CCN(Cc5ccccc5)CC4)c3n2)cc1 [Compound 505, 1-{4-[1-(1-benzylpiperidin-4-yl)-4-morpholin-4-yl-1H-pyrazolo[3,4-d]pyrimidin-6-yl]phenyl}-3-(2-phenylethyl)urea] | 1 | 2.14 | 20
2 | O=C(NCCCc1ccccc1)Nc1ccc(-c2nc(N3CCOCC3)c3cnn(C4CCN(Cc5ccccc5)CC4)c3n2)cc1 [Compound 506, 1-{4-[1-(1-benzylpiperidin-4-yl)-4-morpholin-4-yl-1H-pyrazolo[3,4-d]pyrimidin-6-yl]phenyl}-3-(3-phenylpropyl)urea] | 4.5 | 7.03 | > 60
3 | COc1cccc(C(=O)Nc2ccc(-c3nc(N4CCOCC4)c4cnn(C5CCCCO5)c4n3)cc2)c1 (stereo not drawn) [Compound 519, 3-methoxy-N-{4-[4-morpholin-4-yl-1-(tetrahydro-2H-pyran-2-yl)-1H-pyrazolo[3,4-d]pyrimidin-6-yl]phenyl}benzamide] | 1.95 | 8.32 | > 60
4 | CN(C)CC(=O)Nc1ccc(-c2nc(N3CCOCC3)c3cnn(C4CCCCO4)c3n2)cc1 (stereo not drawn) [Compound 521, N2,N2-dimethyl-N-{4-[4-morpholin-4-yl-1-(tetrahydro-2H-pyran-2-yl)-1H-pyrazolo[3,4-d]pyrimidin-6-yl]phenyl}glycinamide] | 12 | 9 | 40
5 | CN(C)c1ccc(CC(=O)Nc2ccc(-c3nc(N4CCOCC4)c4cnn(C5CCCCO5)c4n3)cc2)cc1 (stereo not drawn) [Compound 522, 2-[4-(dimethylamino)phenyl]-N-{4-[4-morpholin-4-yl-1-(tetrahydro-2H-pyran-2-yl)-1H-pyrazolo[3,4-d]pyrimidin-6-yl]phenyl}acetamide] | 11 | 6.47 | > 60
6 | O=C(Nc1ccc(-c2nc(N3CCOCC3)c3cn[nH]c3n2)cc1)c1cccnc1 [Compound 524, N-[4-(4-morpholin-4-yl-1H-pyrazolo[3,4-d]pyrimidin-6-yl)phenyl]nicotinamide] | 7.2 | 1.17 | 60
7 | COC(=O)Nc1ccc(-c2nc(N3CCOCC3)c3cn[nH]c3n2)cc1 [Compound 525, methyl [4-(4-morpholin-4-yl-1H-pyrazolo[3,4-d]pyrimidin-6-yl)phenyl]carbamate] | 3 | 0.612 | 12
8 | C=CC(=O)Nc1ccc(-c2nc(N3CCOCC3)c3cn[nH]c3n2)cc1 [Compound 526, N-[4-(4-morpholin-4-yl-1H-pyrazolo[3,4-d]pyrimidin-6-yl)phenyl]acrylamide] | 3.4 | 0.601 | 7
9 | CN(C)CC(=O)Nc1ccc(-c2nc(N3CCOCC3)c3cn[nH]c3n2)cc1 [Compound 527, N^2,N^2-dimethyl-N-[4-(4-morpholin-4-yl-1H-pyrazolo[3,4-d]pyrimidin-6-yl)phenyl]glycinamide] | 7 | 2.27 | 18
10 | NCC(=O)Nc1ccc(-c2nc(N3CCOCC3)c3cn[nH]c3n2)cc1 [Compound 528, N-[4-(4-morpholin-4-yl-1H-pyrazolo[3,4-d]pyrimidin-6-yl)phenyl]glycinamide] | 9 | 0.128 | 11
11 | CN1CCC(C(=O)Nc2ccc(-c3nc(N4CCOCC4)c4cn[nH]c4n3)cc2)CC1 [Compound 530, 1-methyl-N-[4-(4-morpholin-4-yl-1H-pyrazolo[3,4-d]pyrimidin-6-yl)phenyl]piperidine-4-carboxamide] | 5.3 | 0.885 | 22
12 | NNC(=O)Nc1ccc(-c2nc(N3CCOCC3)c3cnn(-c4ccccc4)c3n2)cc1 [Compound 538, N-[4-(4-morpholin-4-yl-1-phenyl-1H-pyrazolo[3,4-d]pyrimidin-6-yl)phenyl]hydrazinecarboxamide] | 5.2 | 0.17 | 8
13 | O=C(NO)Nc1ccc(-c2nc(N3CCOCC3)c3cnn(-c4ccccc4)c3n2)cc1 [Compound 539, 1-hydroxy-3-[4-(4-morpholin-4-yl-1-phenyl-1H-pyrazolo[3,4-d]pyrimidin-6-yl)phenyl]urea] | 0.48 | 0.211 | 1.1
14 | O=C(NCCF)Nc1ccc(-c2nc(N3CCOCC3)c3cnn(-c4ccccc4)c3n2)cc1 [Compound 540, 1-(2-fluoroethyl)-3-[4-(4-morpholin-4-yl-1-phenyl-1H-pyrazolo[3,4-d]pyrimidin-6-yl)phenyl]urea] | 0.19 | 0.25 | 0.9

Further lines, with some results ahead:

Row | IC50 (prostate line LNCap) [µM] | IC50 (PI3K) [µM] | Structure (SMILES) | IC50 (breast line MDA468) [µM]
15 | 0.8 | 2.66 | NC(=O)CN1CCC(n2ncc3c(N4CCOCC4)nc(-c4ccc5[nH]ccc5c4)nc32)CC1 [Compound 495, 2-{4-[6-(1H-indol-5-yl)-4-morpholin-4-yl-1H-pyrazolo[3,4-d]pyrimidin-1-yl]piperidin-1-yl}acetamide] | 2.8
16 | 1.8 | 3.99 | OCCN1CCC(n2ncc3c(N4CCOCC4)nc(-c4ccc5[nH]ccc5c4)nc32)CC1 [Compound 496, 2-{4-[6-(1H-indol-5-yl)-4-morpholin-4-yl-1H-pyrazolo[3,4-d]pyrimidin-1-yl]piperidin-1-yl}ethanol] | 3
17 | 2.5 | 7.29 | OCCCN1CCC(n2ncc3c(N4CCOCC4)nc(-c4ccc5[nH]ccc5c4)nc32)CC1 [Compound 497, 3-{4-[6-(1H-indol-5-yl)-4-morpholin-4-yl-1H-pyrazolo[3,4-d]pyrimidin-1-yl]piperidin-1-yl}propan-1-ol] | 3
18 | 0.22 | 0.341 | CCCNC(=O)Nc1ccc(-c2nc(N3CCOCC3)c3cnn(C4CCN(Cc5ccccc5)CC4)c3n2)cc1 [Compound 500, 1-{4-[1-(1-benzylpiperidin-4-yl)-4-morpholin-4-yl-1H-pyrazolo[3,4-d]pyrimidin-6-yl]phenyl}-3-propylurea] | 1.5
19 | 0.7 | 0.384 | O=C(NCC1CC1)Nc1ccc(-c2nc(N3CCOCC3)c3cnn(C4CCN(Cc5ccccc5)CC4)c3n2)cc1 [Compound 508, 1-{4-[1-(1-benzylpiperidin-4-yl)-4-morpholin-4-yl-1H-pyrazolo[3,4-d]pyrimidin-6-yl]phenyl}-3-(cyclopropylmethyl)urea] | 3
20 | 0.25 | 0.268 | C=CCNC(=O)Nc1ccc(-c2nc(N3CCOCC3)c3cnn(C4CCN(Cc5ccccc5)CC4)c3n2)cc1 [Compound 509, 1-allyl-3-{4-[1-(1-benzylpiperidin-4-yl)-4-morpholin-4-yl-1H-pyrazolo[3,4-d]pyrimidin-6-yl]phenyl}urea] | 1.8
21 | 2 | 0.014 | NCCNC(=O)Nc1ccc(-c2nc(N3CCOCC3)c3cnn(C4CCN(Cc5ccccc5)CC4)c3n2)cc1 [Compound 512, 1-(2-aminoethyl)-3-{4-[1-(1-benzylpiperidin-4-yl)-4-morpholin-4-yl-1H-pyrazolo[3,4-d]pyrimidin-6-yl]phenyl}urea] | 2.7
22 | 0.08 | 0.364 | O=C(NCCCO)Nc1ccc(-c2nc(N3CCOCC3)c3cnn(C4CCN(Cc5ccccc5)CC4)c3n2)cc1 [Compound 514, 1-{4-[1-(1-benzylpiperidin-4-yl)-4-morpholin-4-yl-1H-pyrazolo[3,4-d]pyrimidin-6-yl]phenyl}-3-(3-hydroxypropyl)urea] | 0.65
23 | 0.6 | 0.753 | COCCCNC(=O)Nc1ccc(-c2nc(N3CCOCC3)c3cnn(C4CCN(Cc5ccccc5)CC4)c3n2)cc1 [Compound 515, 1-{4-[1-(1-benzylpiperidin-4-yl)-4-morpholin-4-yl-1H-pyrazolo[3,4-d]pyrimidin-6-yl]phenyl}-3-(3-methoxypropyl)urea] | 3.2
24 | 0.65 | 0.158 | CN(C)CCCNC(=O)Nc1ccc(-c2nc(N3CCOCC3)c3cnn(C4CCN(Cc5ccccc5)CC4)c3n2)cc1 [Compound 516, 1-{4-[1-(1-benzylpiperidin-4-yl)-4-morpholin-4-yl-1H-pyrazolo[3,4-d]pyrimidin-6-yl]phenyl}-3-[3-(dimethylamino)propyl]urea] | 2
25 | 1 | 2.8 | O=CN1CCC(n2ncc3c(N4CCOCC4)nc(-c4ccc5[nH]ccc5c4)nc32)CC1 [Compound 518, 4-[6-(1H-indol-5-yl)-4-morpholin-4-yl-1H-pyrazolo[3,4-d]pyrimidin-1-yl]piperidine-1-carbaldehyde] | 3
26 | 0.68 | 0.273 | CCONC(=O)Nc1ccc(-c2nc(N3CCOCC3)c3cnn(C4CCN(Cc5ccccc5)CC4)c3n2)cc1 [Compound 533, 1-{4-[1-(1-benzylpiperidin-4-yl)-4-morpholin-4-yl-1H-pyrazolo[3,4-d]pyrimidin-6-yl]phenyl}-3-ethoxyurea] | 0.16
27 | 0.32 | 0.59 | O=C(NCC(F)(F)F)Nc1ccc(-c2nc(N3CCOCC3)c3cnn(C4CCN(Cc5ccccc5)CC4)c3n2)cc1 [Compound 535, 1-{4-[1-(1-benzylpiperidin-4-yl)-4-morpholin-4-yl-1H-pyrazolo[3,4-d]pyrimidin-6-yl]phenyl}-3-(2,2,2-trifluoroethyl)urea] | 1.3
28 | 3 | 4.23 | O=C(Nc1ccc(-c2nc(N3CCOCC3)c3cnn(C4CCN(Cc5ccccc5)CC4)c3n2)cc1)NN1CCCC1 [Compound 537, 1-{4-[1-(1-benzylpiperidin-4-yl)-4-morpholin-4-yl-1H-pyrazolo[3,4-d]pyrimidin-6-yl]phenyl}-3-pyrrolidin-1-ylurea] | 10
